Results: US8461360B2, “Process for producing γ -mangostin” (Laila Nutraceuticals, priority 2008, dated 2013)

Assays:
[1] = system: Freund Complete Adjuvant induced arthritis; experiment: Freund Complete Adjuvant induced arthritis model, paw edema; type: in vivo, Sprague Dawley rats; conditions: prednisolone 10 mg/kg body weight for 14 days, positive control; vs CMC control
Procedure: The anti-inflammatory efficacies of α-mangostin and γ-mangostin were evaluated by an in vivo study in Freund Complete Adjuvant induced arthritis model of Sprague Dawley rats. The rats of either sex were randomly selected and divided into […] containing five animals in each group. The treatment group rats were supplemented with 25 mg/kg body weight of α-mangostin or γ-mangostin, or prednisolone (10 mg/kg body weight) for 14 days. The animals of control group received similar volume of 1% CMC only. At the 14 th day, Freund Complete Adjuvant (FCA) was injected subcutaneously in the sub-plantar region of the left hind paw of each animal. At the end of experiment, the animals were sacrificed and liver tissue samples were excised and stored in aliquot at −80° C. Blood samples were collected from each animal at a regular interval and paw volumes were measured by Plethysmography equipment at the day of FCA injection and after 13 days of FCA inoculation. The difference in volume of edema at the day of FCA injection and at 13th day after induction is considered as the inflammatory response. The in vivo anti-inflammatory response of α-mangostin, γ-mangostin and prednisolone was estimated by calculating the percentage of inhibition of paw edema when compared with the CMC supplemented control.

[2] = system: aP2 (Adipocyte fatty acid binding protein); experiment: Down-regulation of aP2 protein expression in LPS induced THP-1 derived macrophages (Western blot); type: cell-based, human; conditions: 5 μg/ml pre-treatment 2 h, LPS 100 ng/ml 16 h, normalized with actin
Procedure: Down-regulation of aP2 protein expression by γ-mangostin and α-mangostin was evaluated in a cell based in vitro model. Briefly, equal number of THP-1 monocyte cells were plated in 40 mm tissue culture petri-dishes and the cells were differentiated to macrophages by treatment with 10 nM Phorbol myristate acetate (PMA) for 24 h. The attached cells in the culture dishes were washed with serum free and phenol red free DMEM; and the differentiated macrophage cells were pre-treated for 2 h with 5 μg/ml of either γ-mangostin or α-mangostin or 0.1% DMSO in serum free DMEM supplemented with 2% BSA. Thereafter, the cells were primed with 100 ng/ml of LPS for 16 h to induce the inflammatory response. The 0.1% DMSO treated cells without LPS treatment were considered as vehicle control. […] The protein content was measured by Coomassie blue based Bradford method and equal amount of cellular protein lysates (2 μg) was resolved in 15% SDS-Polyacrylamide gels. […] The aP2 protein expression was specifically detected by chemiluminescent substrate (Pierce, USA); detection of chemiluminescent bands and densitometric analyses were carried out on Kodak 4000 MM image station (supplied by Kodak, USA). The same nitrocellulose blots were stripped and re-probed with anti-actin antibody (Sigma Chemical CO, USA) and actin protein expression was recorded as an indication of equal protein loading in each, lane. […]

[3] = Superoxide radical scavenging activity (NBT method); type: biochemical; conditions: riboflavin/NBT, 560 nm
Procedure: Superoxide radical scavenging activity of test substances was determined by the method of McCord and Fridovich (J. Biol. Chem., 244, 6049, 1969). The assay mixture contained EDTA (6.6 mM containing 3 μg NaCN), riboflavin (2 μM), NBT (50 μM), phosphate buffer (67 mM, pH 7.8) in a final volume of 3 mL and various concentrations of test substances. The tubes were mixed well and optical densities were measured at 560 nm. The tubes were uniformly illuminated with an incandescent lamp for 15 min. and the optical densities were measured again at 560 nm. The percentage inhibition of superoxide radical generation was measured by comparing the absorbance values of control and those of the test substances. The IC50 values were obtained from the plot drawn of the concentration (μg) verses percentage inhibition.

[4] = target: potato 5-lipoxygenase; experiment: 5-Lipoxygenase enzyme inhibitory activity; type: biochemical; conditions: 80 μM linoleic acid, pH 6.3, absorbance 234 nm
Procedure: 5-Lipoxygenase enzyme inhibitory activity was measured using the method of Schewe, et. al. (Adv Enzymol, Vol 58: pp 191-272, 1986), that was modified by Reddanna, et. al., (Methods of Enzymology, Vol 187: pp 268-277, 1990). The assay mixture contained 80 μM linoleic acid and sufficient amount of potato 5-lipoxygenase in 50 mM phosphate buffer (pH 6.3). The reaction was initiated by the addition of enzyme buffer mix to linoleic acid and the enzyme activity was monitored as the increase in absorbance at 234 nm. The reaction was monitored for 120 sec and the inhibitory potential of the test substances was measured by incubating various concentrations of test substances α-mangostin and γ-mangostin two minutes before the addition of linoleic acid. All assays were performed three times. The IC50 values were calculated from the plot drawn of the concentrations of test substances versus percentage inhibition.

[5] = DPPH free radical scavenging activity; type: biochemical; conditions: methanolic DPPH solution
Procedure: DPPH free radical scavenging activity was measured by the method of Lamaison, et al., (Pharma Acta Helv. 1991; 66:185) based on the reduction of colored methanolic solution of the DPPH. Free radical scavenging ability of each test substances added to the methanolic solution of DPPH was inversely proportional to the difference in initial and final absorption of DPPH solution at […] Antioxidant activity is expressed as the 50% inhibitory concentration (IC50). The reaction mixture contained 1×10^−4 mM methanolic solution of DPPH and various concentrations of the test substances. Percentage inhibition was determined by comparing the absorbance values of test and control tubes. The IC50 values were obtained from the plot drawn of the concentration (μg) verses percentage inhibition.

[6] = system: IKK; conditions: Biochem. Pharmacol. reference; cited from earlier work

Row | Compound | inhibition of paw edema [1] [%] | inhibition of aP2 protein expression [2] | NBT method IC50 [3] [µg/mL] | 5-Lipoxygenase inhibitory activity IC50 values [4] [µg/mL] | DPPH method IC50 [5] [µg/mL] | inhibition of IKK activity [6]
1 | C[C@]12C=CC(=O)C=C1CC[C@@H]1[C@@H]2[C@@H](O)C[C@@]2(C)[C@H]1CC[C@]2(O)C(=O)CO [prednisolone] | 54 |  |  |  |  | 
2 | COc1c(O)cc2oc3cc(O)c(CC=C(C)C)c(O)c3c(=O)c2c1CC=C(C)C [α-Mangostin, 1,3,6-trihydroxy-7-methoxy-2,8-bis-(3-methyl-but-2-only) -xanthen-9-one] |  | inhibition of aP2 protein expression | 61.8 | 2.7 | >100 | 
3 | O=C1O[C@H]([C@@H](O)CO)C(O)=C1O [Vitamin C] |  |  | 123.6 |  | 3.7 | 
4 | CC(C)=CCc1c(O)cc2oc3cc(O)c(O)c(CC=C(C)C)c3c(=O)c2c1O [γ-Mangostin, 2,8-bis[(2E)-3-methylbut-2-only)-1,3,6,7-tetrahydroxyxanthen-9-one] |  | more potent inhibitor of aP2 in vitro compared to α-mangostin | 8.7 | 0.5 | 9.7 | directly inhibits IKK activity
